Among the data in publication PMC6175411, “Reversible optical control of F1Fo‐ATP synthase using photoswitchable inhibitors” (Febs Letters, 2018) are IC50 values, retold here.

In this experiment the target is T1, Yarrowia lipolytica F1Fo-ATP synthase (YF1Fo), monomeric (Yarrowia lipolytica, UniProt Q6C326+Q6C338+Q6CFT7).
T1 construct: gene ATP1; complete, genetically unmodified native F1Fo holoenzyme, monomeric form, solubilised in DDM from Y. lipolytica mitochondria; PEG precipitation, glycerol gradient, anion exchange; remaining Fo and peripheral stalk subunits also present; with ATP synthase subunit delta, mitochondrial; ATP synthase subunit epsilon, mitochondrial; ATP synthase subunit 9, mitochondrial (subunit c); ATP synthase subunit a
T1 sequence (Q6C326 25-536): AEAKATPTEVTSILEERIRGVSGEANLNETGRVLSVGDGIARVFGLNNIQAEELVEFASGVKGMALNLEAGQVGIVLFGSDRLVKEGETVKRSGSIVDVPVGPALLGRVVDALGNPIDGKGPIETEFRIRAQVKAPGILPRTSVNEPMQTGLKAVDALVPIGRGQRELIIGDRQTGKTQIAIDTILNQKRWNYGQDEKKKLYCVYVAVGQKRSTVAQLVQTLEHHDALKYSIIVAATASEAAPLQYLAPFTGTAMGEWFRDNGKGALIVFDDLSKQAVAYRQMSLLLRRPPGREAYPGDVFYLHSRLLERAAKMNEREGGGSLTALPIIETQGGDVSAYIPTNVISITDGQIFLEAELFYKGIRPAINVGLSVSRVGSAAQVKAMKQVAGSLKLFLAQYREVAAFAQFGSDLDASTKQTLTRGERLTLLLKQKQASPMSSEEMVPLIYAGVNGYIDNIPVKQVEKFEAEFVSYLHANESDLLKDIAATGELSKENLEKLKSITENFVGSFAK
T1 sequence (Q6CFT7 33-509): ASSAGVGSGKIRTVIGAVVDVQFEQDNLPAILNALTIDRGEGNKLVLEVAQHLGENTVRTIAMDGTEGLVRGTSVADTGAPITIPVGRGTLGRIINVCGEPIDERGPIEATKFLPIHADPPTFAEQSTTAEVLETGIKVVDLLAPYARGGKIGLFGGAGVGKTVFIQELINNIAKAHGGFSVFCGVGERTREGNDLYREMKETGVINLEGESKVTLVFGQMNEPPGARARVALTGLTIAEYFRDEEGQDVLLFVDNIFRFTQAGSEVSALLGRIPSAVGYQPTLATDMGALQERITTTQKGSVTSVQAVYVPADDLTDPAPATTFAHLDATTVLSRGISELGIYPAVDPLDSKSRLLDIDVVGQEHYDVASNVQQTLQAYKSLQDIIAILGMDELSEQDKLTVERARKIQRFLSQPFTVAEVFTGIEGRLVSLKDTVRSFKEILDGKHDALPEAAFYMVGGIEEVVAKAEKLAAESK
T1 sequence (Q6C338 22-293): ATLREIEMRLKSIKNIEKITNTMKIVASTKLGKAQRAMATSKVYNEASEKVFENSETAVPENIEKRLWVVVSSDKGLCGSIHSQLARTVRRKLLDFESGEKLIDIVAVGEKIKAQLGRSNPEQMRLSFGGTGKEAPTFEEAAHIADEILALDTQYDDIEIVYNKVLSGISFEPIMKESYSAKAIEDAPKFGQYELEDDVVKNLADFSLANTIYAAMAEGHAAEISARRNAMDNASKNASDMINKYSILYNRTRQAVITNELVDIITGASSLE
T1 sequence (Q6C877 25-162 partner): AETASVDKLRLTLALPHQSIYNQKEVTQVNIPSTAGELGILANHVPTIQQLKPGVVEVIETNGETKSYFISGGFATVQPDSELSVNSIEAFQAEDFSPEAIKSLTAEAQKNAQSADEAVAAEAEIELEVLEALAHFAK
T1 sequence (Q37695 whole entry partner): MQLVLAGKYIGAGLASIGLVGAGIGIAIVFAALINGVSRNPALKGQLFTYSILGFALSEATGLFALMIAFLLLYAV
Put plainly: malachite green ATP hydrolysis assay. The format is biochemical.
A word on the IC50: it is the concentration needed to halve the response being measured. Take `Oc1cc(O)cc(/N=N/c2ccc(O)c(O)c2)c1` [PIAS-4, 4‐((3,5‐dihydroxyphenyl)diazenyl)benzene‐1,2‐diol]: the IC50 came out at 14 ± 2.7 µM.
The compound `Oc1ccc(/C=C/c2cc(O)cc(O)c2)cc1` [resveratrol] yielded an IC50 of 185 ± 17.7 µM.
Take `COc1cc(/N=N/c2ccc(O)c(OC)c2)cc(OC)c1` [PIAS-3, 4‐((3,5‐dimethoxyphenyl)diazenyl)‐2‐methoxyphenol]: the IC50 is over 200 µM.
The value for `Oc1ccc(/N=N/c2cc(O)cc(O)c2)cc1` [PIAS-1, 5‐((4‐hydroxyphenyl)diazenyl)benzene‐1,3‐diol] was 140 ± 56.6 µM; that for `COc1cc(/N=N/c2ccc(O)cc2)cc(OC)c1` [PIAS-2, 4‐((3,5‐dimethoxyphenyl)diazenyl)phenol] was over 200 µM.
